This is an account of results in ChEMBL document CHEMBL1159284, “A Short Enantioselective Synthesis of a Biologically Active Compound from Persea americana” (J Nat Prod, 1995).

Series [1] relates to Mus musculus. In words: Toxicity in lactating mouse assessed as widespread mammary gland necrosis at 200 mg/kg. In kind it is organism-based. Also on record: dose 200 mg/kg. To be noted: in vivo.
Series [2] deals with Mus musculus. Kind of series: Toxicity in lactating mouse assessed as widespread mammary gland necrosis at 50 to 100 mg/kg. It counts as organism-based. Further details: dose 50-100 mg/kg; call rule not given here. The note with it: in vivo.

As for `CCCCC/C=C\C/C=C\CCCCCCCC(=O)C[C@H](O)COC(C)=O`, in series [1], the Activity entry is listed as “Not Active”.
Turning to `CCCCC/C=C\C/C=C\CCCCCCCC(=O)C[C@@H](O)COC(C)=O`, the result in series [2] was Active.
